Results from the CheMixHub viscosity set.

Test: xn = mol fraction of the nth substance listed

CCCCCCCCCCCCCC + COc1ccccc1
viscosity [mPa·s], 101 kPa
Conditions | x1 = 0.1012 | x1 = 0.2027 | x1 = 0.3005 | x1 = 0.3936 | x1 = 0.4986 | x1 = 0.6001 | x1 = 0.6977 | x1 = 0.7959 | x1 = 0.8991
298.15 K | 0.996 | 1.035 | 1.105 | 1.241 | 1.311 | 1.38 | 1.45 | 1.521 | 1.697
303.15 K | 0.916 | 0.974 | 1.004 | 1.116 | 1.21 | 1.304 | 1.398 | 1.493 | 1.587
308.15 K | 0.855 | 0.907 | 0.932 | 1.028 | 1.089 | 1.149 | 1.209 | 1.27 | 1.331

ClC(Cl)=C(Cl)Cl + COc1ccccc1
303.15 K, 101.3 kPa
Conditions | viscosity [mPa·s]
x2 = 0.0193 | 0.793
x2 = 0.039 | 0.79
x2 = 0.0561 | 0.792
x2 = 0.1158 | 0.781
x2 = 0.189 | 0.776
x2 = 0.2303 | 0.778
x2 = 0.2742 | 0.783
x2 = 0.3317 | 0.787
x2 = 0.3643 | 0.79
x2 = 0.4286 | 0.801
x2 = 0.4726 | 0.812
x2 = 0.6096 | 0.831
x2 = 0.6829 | 0.848
x2 = 0.7292 | 0.856
x2 = 0.7745 | 0.862
x2 = 0.8665 | 0.878
x2 = 0.8991 | 0.885
x2 = 0.9485 | 0.899

O=[N+]([O-])c1ccccc1 + COc1ccccc1
Conditions | viscosity [mPa·s]
293.15 K, 101.33 kPa, x2 = 0.0982 | 1.864
293.15 K, 101.33 kPa, x2 = 0.1946 | 1.72
293.15 K, 101.33 kPa, x2 = 0.2868 | 1.597
293.15 K, 101.33 kPa, x2 = 0.3929 | 1.478
293.15 K, 101.33 kPa, x2 = 0.5767 | 1.407
293.15 K, 101.33 kPa, x2 = 0.6086 | 1.289
293.15 K, 101.33 kPa, x2 = 0.7073 | 1.23
293.15 K, 101.33 kPa, x2 = 0.8086 | 1.167
293.15 K, 101.33 kPa, x2 = 0.9081 | 1.117
298.15 K, 101 kPa, x2 = 0.1 | 1.556
298.15 K, 101 kPa, x2 = 0.2022 | 1.561
298.15 K, 101 kPa, x2 = 0.3039 | 1.454
298.15 K, 101 kPa, x2 = 0.3968 | 1.368
298.15 K, 101 kPa, x2 = 0.5018 | 1.281
298.15 K, 101 kPa, x2 = 0.6021 | 1.204
298.15 K, 101 kPa, x2 = 0.7032 | 1.146
298.15 K, 101 kPa, x2 = 0.8267 | 1.068
298.15 K, 101 kPa, x2 = 0.9043 | 1.045
298.15 K, 101.33 kPa, x2 = 0.0982 | 1.703
298.15 K, 101.33 kPa, x2 = 0.1946 | 1.613
298.15 K, 101.33 kPa, x2 = 0.2868 | 1.468
298.15 K, 101.33 kPa, x2 = 0.3929 | 1.371
298.15 K, 101.33 kPa, x2 = 0.5767 | 1.294
298.15 K, 101.33 kPa, x2 = 0.6086 | 1.201
298.15 K, 101.33 kPa, x2 = 0.7073 | 1.153
298.15 K, 101.33 kPa, x2 = 0.8086 | 1.074
298.15 K, 101.33 kPa, x2 = 0.9081 | 1.048
303.15 K, 101 kPa, x2 = 0.0972 | 1.555
303.15 K, 101 kPa, x2 = 0.1 | 1.43
303.15 K, 101 kPa, x2 = 0.1829 | 1.437
303.15 K, 101 kPa, x2 = 0.2022 | 1.443
303.15 K, 101 kPa, x2 = 0.2642 | 1.341
303.15 K, 101 kPa, x2 = 0.3039 | 1.339
303.15 K, 101 kPa, x2 = 0.3916 | 1.224
303.15 K, 101 kPa, x2 = 0.3968 | 1.263
303.15 K, 101 kPa, x2 = 0.4829 | 1.147
303.15 K, 101 kPa, x2 = 0.5018 | 1.186
303.15 K, 101 kPa, x2 = 0.583 | 1.08
303.15 K, 101 kPa, x2 = 0.6021 | 1.115
303.15 K, 101 kPa, x2 = 0.6854 | 1.022
303.15 K, 101 kPa, x2 = 0.7032 | 1.064
303.15 K, 101 kPa, x2 = 0.7963 | 0.981
303.15 K, 101 kPa, x2 = 0.8267 | 0.9924
303.15 K, 101 kPa, x2 = 0.8977 | 0.96
303.15 K, 101 kPa, x2 = 0.9043 | 0.9678
308.15 K, 101 kPa, x2 = 0.1 | 1.317
308.15 K, 101 kPa, x2 = 0.2022 | 1.326
308.15 K, 101 kPa, x2 = 0.3039 | 1.236
308.15 K, 101 kPa, x2 = 0.3968 | 1.165
308.15 K, 101 kPa, x2 = 0.5018 | 1.096
308.15 K, 101 kPa, x2 = 0.6021 | 1.031
308.15 K, 101 kPa, x2 = 0.7032 | 0.9838
308.15 K, 101 kPa, x2 = 0.8267 | 0.92
308.15 K, 101 kPa, x2 = 0.9043 | 0.8978
313.15 K, 101 kPa, x2 = 0.1 | 1.217
313.15 K, 101 kPa, x2 = 0.2022 | 1.224
313.15 K, 101 kPa, x2 = 0.3039 | 1.142
313.15 K, 101 kPa, x2 = 0.3968 | 1.078
313.15 K, 101 kPa, x2 = 0.5018 | 1.013
313.15 K, 101 kPa, x2 = 0.6021 | 0.9572
313.15 K, 101 kPa, x2 = 0.7032 | 0.9119
313.15 K, 101 kPa, x2 = 0.8267 | 0.8533
313.15 K, 101 kPa, x2 = 0.9043 | 0.8343
